Patent US9682049B2, “Non-racemic mixtures of various ratios of D- and L-methadone and methods of treating pain using the same” (priority 2015, dated 2017)
Where a name gives a salt, the structure may show the parent alone. Read-outs that look alike come from different tables or passages of the source.

Key:
neuropathic pain [1] = settings: Lemberg et al. 2006; cited from earlier work
neuropathic pain [2] = settings: small group of patients, high dose; cited from earlier work
neuropathic pain model = settings: intrathecal, rats; not reversed by naloxone; cited from earlier work
[3] = system: painful diabetic neuropathy; experiment: Changes in VAS scores (SF-MPQ), double-blind randomized crossover study vs placebo; type: in vivo, human
Procedure: (§1) Potential patients were recruited by advertising and screened via interview, review of health history and medications, physical examination, lab work, and ECG.
(§2) The average daily pain score and the worst daily pain scores were measured. Patients recorded their pain score four times daily on a scale of 0 to 10. Additionally, pain scores were measured using a Visual Analog Scale (VAS) during weekly visits to the study center.
VAS is a measurement instrument that measures a characteristic or attitude that is believed to range across a continuum of values. For example, the amount of pain that a patient feels may range across a continuum from no pain to an extreme amount of pain. […] In order to capture this underlying continuum, VAS was devised, and in the present study, VAS was used as described here. (See e.g., D. Gould et al., J. Clin. Nursing, 10: 697-706 (2001)).
VAS was conducted by using a horizontal line, 100 mm in length, anchored by word descriptors at each end, as illustrated below. Patients marked on a line (as shown below) the point that best represented their perception of pain.
A VAS score was determined by measuring in millimeters from the left hand end of the line to the point that the patient marked.

[4] = system: painful diabetic neuropathy; experiment: Changes in average daily pain scores, double-blind randomized crossover study vs placebo; type: in vivo, human
Procedure: as §1, §2

[5] = Solubility of 75/25 D/L methadone HCl drug substance; type: physicochemical
Excerpt: General Properties of 75/25 D/L Methadone-HCl Included the Following Physical Characteristics: […]

[6] = system: patients with painful diabetic neuropathy; experiment: Patient withdrawal because of side effects in the 3:1 D:L-methadone study; settings: terminated the study because of side effects (mostly nausea and vomiting)
Procedure: Patients were subjected to forceful weekly titration of doses from 15 mg the first week, to 30 mg the second week, and to 40 mg the third and fourth weeks.

[7] = system: patients with neuropathic pain; settings: Morley study; cited from earlier work
neuropathic pain [8] = settings: cited from earlier work; for placebo-adjusted relief of average daily pain intensity: Morley

CCC(=O)C(C[C@@H](C)N(C)C)(c1ccccc1)c1ccccc1 [L-methadone, (R)-(−)-methadone]
potency in neuropathic pain (neuropathic pain [1]): greater potency than other opioids

CCC(=O)C(C[C@H](C)N(C)C)(c1ccccc1)c1ccccc1 [D-methadone, (S)-(+)-methadone]
potency in neuropathic pain (neuropathic pain [1]): inactive | analgesic response (neuropathic pain [2]): no analgesic response | antinociception (neuropathic pain model): produced antinociception

CCC(=O)C(CC(C)N(C)C)(c1ccccc1)c1ccccc1 (racemic) [75:25 D:L-methadone, Mixture of 75% (6S)-6-(dimethylamino)-4,4-dipheylhepan-3-one hydrochloride and 25% (6R)-6-(dimethylamino)-4,4-dipheylhepan-3-one hydrochloride]
Change in VAS score (SF-MPQ), median ([3]; 15 mg): −7.0 | Change in VAS score, difference in means vs placebo (95% CI) ([3]; 15 mg): −10.1 (−21.0; 0.9) | Change in VAS score (SF-MPQ), mean ([3]; 15 mg, VAS 100 mm line, primary efficacy population): −12.8 | Change in VAS score (SF-MPQ), mean ([3]; 30 mg): −14.9 | Change in VAS score (SF-MPQ), median ([3]; 30 mg): −8.0 | Change in VAS score, difference in means vs placebo (95% CI) ([3]; 30 mg): −6.3 (−17.4; 4.9) | Change in VAS score (SF-MPQ), mean ([3]; 40 mg (1st Week)): −19.5 | Change in VAS score (SF-MPQ), median ([3]; 40 mg (1st Week)): −13.0 | Change in VAS score, difference in means vs placebo (95% CI) ([3]; 40 mg (1st Week)): −10.5 (−19.6; −1.4) | Change in VAS score (SF-MPQ), mean ([3]; 40 mg (2nd Week)): −20.7 | Change in VAS score (SF-MPQ), median ([3]; 40 mg (2nd Week)): −10.0 | Change in VAS score, difference in means vs placebo (95% CI) ([3]; 40 mg (2nd Week)): −8.1 (−18.3; 2.2) | Change in VAS score (SF-MPQ), mean ([3]; 40 mg (Both Weeks)): −20.1 | Change in VAS score (SF-MPQ), median ([3]; 40 mg (Both Weeks)): −12.0 | Change in VAS score, difference in means vs placebo (95% CI) ([3]; 40 mg (Both Weeks)): −9.3 (−15.8; − 2.8) | Change in VAS score (SF-MPQ), mean ([3]; 15-30 mg (Combined), pooled): −13.9 | Change in VAS score (SF-MPQ), median ([3]; 15-30 mg (Combined), pooled): −8.0 | Change in VAS score, difference in means vs placebo (95% CI) ([3]; 15-30 mg (Combined), pooled): −8.1 (−15.6; −0.6) | placebo-adjusted relief of average daily pain intensity ([3]; lowest tested dose (15 mg) of the 3:1 mixture): −10.1 | placebo-adjusted relief of average daily pain intensity compared with 10 mg of racemic methadone ([3]; vs Morley 10 mg racemic methadone): 3 times better | placebo-adjusted relief of average daily pain intensity compared with 20 mg of racemic methadone ([3]; vs Morley 20 mg racemic methadone): 54 % better | Change in average daily pain score, Difference in Means vs placebo (95% CI) ([4]; 15 mg): −0.84 (−1.64; −0.04) | Change in average daily pain score, Mean (SD) ([4]; 15 mg, scale of 0 to 10, two clinical sites combined): −0.88 (1.46) | Change in average daily pain score, Difference in Means vs placebo (95% CI) ([4]; 30 mg): −1.14 (−2.30; 0.02) | Change in average daily pain score, Mean (SD) ([4]; 30 mg): −1.41 (1.87) | Change in average daily pain score, Difference in Means vs placebo (95% CI) ([4]; 40 mg (1st Week)): −1.08 (−2.20; 0.03) | Change in average daily pain score, Mean (SD) ([4]; 40 mg (1st Week)): −1.57 (1.98) | Change in average daily pain score, Difference in Means vs placebo (95% CI) ([4]; 40 mg (2nd Week)): −1.17 (−2.28; −0.06) | Change in average daily pain score, Mean (SD) ([4]; 40 mg (2nd Week)): −1.73 (2.01) | Change in average daily pain score, Difference in Means vs placebo (95% CI) ([4]; 40 mg (Both Weeks)): −1.13 (−1.88; −0.38) | Change in average daily pain score, Mean (SD) ([4]; 40 mg (Both Weeks)): −1.65 (1.97) | Change in average daily pain score, Difference in Means vs placebo (95% CI) ([4]; 15-30 mg Combined): −0.99 (1.67; −0.31) | Change in average daily pain score, Mean (SD) ([4]; 15-30 mg Combined): −1.14 (1.67) | Solubility ([5]; alcohols): readily soluble | Solubility ([5]; ether): practically insoluble | Solubility ([5]; methylene chloride): readily soluble | Solubility ([5]; water): readily soluble | patient withdrawal rate [6]: 17%

CCC(=O)C(CC(C)N(C)C)(c1ccccc1)c1ccccc1 (racemic) [racemic methadone, methadone]
patient withdrawal rate [7]: 37% | placebo-adjusted relief of average daily pain intensity (neuropathic pain [8]; 10 mg of racemic methadone): −3.20 | placebo-adjusted relief of average daily pain intensity (neuropathic pain [8]; 20 mg of racemic methadone): −6.56 | analgesic effect in neuropathic pain (neuropathic pain [8]; Morley et al. 2003): analgesic effect
